Results as given in ChEMBL document CHEMBL6182912, “Development of Novel Phthalazinone-Triazole Hybrids as Potential Antidiabetic Agents Targeting GLUT4 Translocation in Skeletal Muscle” (J Med Chem, 2025).
The source made the active and inactive calls. No cut-off for these calls is given here.

Tests used:
[1] = target: T1, Solute carrier family 2, facilitated glucose transporter member 4 (Rattus norvegicus) (UniProt P19357); test: Modulation of GLUT4 translocation in rat L6-GLUT4myc skeletal muscle cells assessed as increase in surface GLUT4myc level by measuring fold stimulation at 10 uM measured after 16 hrs by O-phenylenediamine assay relative to control; format: cell-based; details: filed as modulator
T1 sequence (whole entry): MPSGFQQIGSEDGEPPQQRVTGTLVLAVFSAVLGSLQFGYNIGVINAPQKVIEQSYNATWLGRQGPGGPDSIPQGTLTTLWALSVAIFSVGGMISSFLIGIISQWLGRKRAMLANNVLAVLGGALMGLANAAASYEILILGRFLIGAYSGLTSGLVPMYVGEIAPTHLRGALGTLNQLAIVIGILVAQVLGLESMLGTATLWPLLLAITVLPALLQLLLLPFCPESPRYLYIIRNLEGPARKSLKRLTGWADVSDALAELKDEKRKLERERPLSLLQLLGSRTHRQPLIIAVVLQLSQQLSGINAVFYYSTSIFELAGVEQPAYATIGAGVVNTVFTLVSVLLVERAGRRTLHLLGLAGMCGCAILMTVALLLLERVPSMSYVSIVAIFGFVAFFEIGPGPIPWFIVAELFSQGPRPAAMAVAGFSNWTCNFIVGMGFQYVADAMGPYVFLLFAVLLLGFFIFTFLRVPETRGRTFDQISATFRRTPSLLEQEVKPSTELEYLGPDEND

[2] = target: T1, Solute carrier family 2, facilitated glucose transporter member 4 (Rattus norvegicus); test: Modulation of GLUT4 translocation in rat L6-GLUT4myc skeletal muscle cells assessed as increase in surface GLUT4myc level measured after 16 hrs by O-phenylenediamine assay; format: cell-based; details: filed as modulator, dose 5-25 µM
[3] = target: T1, Solute carrier family 2, facilitated glucose transporter member 4 (Rattus norvegicus); test: Modulation of insulin-stimulated GLUT4 translocation in rat L6-GLUT4myc skeletal muscle cells assessed as increase in surface GLUT4myc level at 50 nM pretreated with compound for 16 hrs and cultured final 3 hrs of compound treatment in serum-starved medium followed by insulin addition measured after 20 mins by O-phenylenediamine assay; format: cell-based; details: time 980.0 min
[4] = target: T1, Solute carrier family 2, facilitated glucose transporter member 4 (Rattus norvegicus); test: Modulation of insulin-stimulated GLUT4 translocation in rat L6-GLUT4myc skeletal muscle cells assessed as increase in AKT phosphorylation Ser473 pretreated with compound for 16 hrs followed by insulin addition measured after 10 mins by Western blot analysis; format: cell-based; details: time 970.0 min
[5] = target: T1, Solute carrier family 2, facilitated glucose transporter member 4 (Rattus norvegicus); test: Modulation of GLUT4 translocation in rat L6-GLUT4myc skeletal muscle cells assessed as increase in surface GLUT4myc level by measuring fold stimulation at 1 mM measured after 1 hr by O-phenylenediamine assay relative to control; format: cell-based; details: filed as modulator
[6] = target: T1, Solute carrier family 2, facilitated glucose transporter member 4 (Rattus norvegicus); test: Modulation of GLUT4 translocation in rat L6-GLUT4myc skeletal muscle cells assessed as increase in surface GLUT4myc level by measuring fold stimulation at 500 uM measured after 16 hrs by O-phenylenediamine assay relative to control; format: cell-based; details: filed as modulator
Rattus norvegicus [7] = test: Anti-hyperglycemic effect in STZ-induced diabetic male Sprague-Dawley rat assessed as reduction in blood glucose level at 300 mg/kg, po measured after 5 hrs relative to control; format: functional; set-up: scale not given: the % may be the effect or the level left
[8] = Stability in SIF at pH 6.8 assessed as compound remaining measured after 120 mins by UPLC analysis; format: physicochemical; details: read-out: Stability
[9] = Stability in SGF at pH 1.2 assessed as compound remaining measured after 120 mins by UPLC analysis; format: physicochemical; details: read-out: Stability
[10] = Stability in rat plasma assessed as compound remaining measured after 120 mins by UPLC analysis; format: ADME, cell-free; details: read-out: Stability
[11] = Stability in SPF at pH 7.4 assessed as compound remaining measured after 120 mins by UPLC analysis; format: physicochemical; details: read-out: Stability
[12] = target: T1, Solute carrier family 2, facilitated glucose transporter member 4 (Rattus norvegicus); test: Modulation of insulin-stimulated GLUT4 translocation in rat L6-GLUT4myc skeletal muscle cells assessed as increase in surface GLUT4myc level at 10 uM pretreated with compound overnight and cultured final 3 hrs of compound treatment in serum-starved medium followed by insulin addition measured after 20 mins by O-phenylenediamine assay; format: cell-based; details: filed as modulator
[13] = target: T1, Solute carrier family 2, facilitated glucose transporter member 4 (Rattus norvegicus); test: Modulation of insulin-stimulated GLUT4 translocation in rat L6-GLUT4myc skeletal muscle cells assessed as increase in surface GLUT4myc level at 10 uM pretreated with compound and wortmannin for 16 hrs and cultured final 3 hrs of compound treatment in serum-starved medium followed by insulin addition measured after 20 mins by O-phenylenediamine assay; format: cell-based; details: time 980.0 min
[14] = target: T1, Solute carrier family 2, facilitated glucose transporter member 4 (Rattus norvegicus); test: Modulation of insulin-stimulated GLUT4 translocation in rat L6-GLUT4myc skeletal muscle cells assessed as increase in AKT phosphorylation Ser473 at 10 uM pretreated with compound for 16 hrs followed by insulin addition measured after 10 mins by Western blot analysis; format: cell-based; details: filed as modulator, time 970.0 min
[15] = target: T1, Solute carrier family 2, facilitated glucose transporter member 4 (Rattus norvegicus); test: Modulation of insulin-stimulated GLUT4 translocation in rat L6-GLUT4myc skeletal muscle cells assessed as increase in AKT phosphorylation Ser473 at 10 uM pretreated with compound and wortmannin for 16 hrs followed by insulin addition measured after 10 mins by Western blot analysis; format: cell-based; details: time 970.0 min
[16] = target: T1, Solute carrier family 2, facilitated glucose transporter member 4 (Rattus norvegicus); test: Modulation of GLUT4 translocation in rat L6-GLUT4myc skeletal muscle cells assessed as increase in GLUT4 mRNA level at 10 uM incubated for 16 hrs by RT-PCR analysis; format: cell-based; details: filed as modulator
L6-GLUT4myc [17] = test: Effect on AKT2 mRNA level in rat L6-GLUT4myc at 10 uM incubated for 16 hrs by RT-PCR analysis; format: functional, cell-based
L6-GLUT4myc [18] = test: Effect on IRS1 mRNA level in rat L6-GLUT4myc at 10 uM incubated for 16 hrs by RT-PCR analysis; format: functional, cell-based
[19] = target: T1, Solute carrier family 2, facilitated glucose transporter member 4 (Rattus norvegicus); test: Modulation of GLUT4 translocation in rat L6-GLUT4myc skeletal muscle cells assessed as increase in AMPK-alpha phosphorylation at Thr172 at 10 uM incubated for 16 hrs by Western blot analysis; format: cell-based; details: filed as modulator
Rattus norvegicus [20] = test: Anti-hyperglycemic effect in STZ-induced diabetic male Sprague-Dawley rat assessed as reduction in blood glucose level at 100 mg/kg, po; format: functional, organism-based; details: time 30-300 min
Rattus norvegicus [21] = test: Anti-hyperglycemic effect in STZ-induced diabetic male Sprague-Dawley rat assessed as reduction in blood glucose level at 100 mg/kg, po measured after 5 hrs relative to control; format: functional; set-up: scale not given: the % may be the effect or the level left

Structure (SMILES) | fold change (FC) [1] | also measured
O=C(OCc1cn(-c2ccc(Br)cc2)nn1)c1cc(Cc2n[nH]c(=O)c3ccccc23)ccc1F | 1.39 | 
O=C(NCc1cn(-c2ccc(F)cc2)nn1)c1ccc(Cc2n[nH]c(=O)c3ccccc23)cc1 | 1.11 | 
Cc1ccc(-n2cc(CNC(=O)c3cc(Cc4n[nH]c(=O)c5ccccc45)ccc3F)nn2)cc1 | 1.92 | Activity [2]: Dose-dependent-effect
COc1cccc(-n2cc(CNC(=O)c3cc(Cc4n[nH]c(=O)c5ccccc45)ccc3F)nn2)c1 | 1.4 | 
COc1ccc(-n2cc(CNC(=O)c3ccc(Cc4n[nH]c(=O)c5ccccc45)cc3)nn2)cc1 | 1.12 | 
O=C(NCc1cn(-c2ccc(F)cc2)nn1)c1cc(Cc2n[nH]c(=O)c3ccccc23)ccc1F | 1.98 | 
O=C(NCc1cn(-c2ccc(OC(F)(F)F)cc2)nn1)c1ccc(Cc2n[nH]c(=O)c3ccccc23)cc1 | 1.04 | 
COc1cc(-n2cc(CNC(=O)c3cc(Cc4n[nH]c(=O)c5ccccc45)ccc3F)nn2)cc(OC)c1OC | 1.08 | 
O=C(NCc1cn(-c2ccc(Cl)c(Cl)c2)nn1)c1cc(Cc2n[nH]c(=O)c3ccccc23)ccc1F | 1.49 | 
COC[C@H]1OC(=O)c2coc3c2[C@@]1(C)C1=C(C3=O)[C@@H]2CCC(=O)[C@@]2(C)C[C@H]1OC(C)=O |  | Activity [3]: inactive; Activity [4]: inactive
NC(=O)c1ncn([C@@H]2O[C@H](CO)[C@@H](O)[C@H]2O)c1N |  | fold change (FC) [5]: 1.56
COc1cccc(OC)c1-n1cc(CNC(=O)c2cc(Cc3n[nH]c(=O)c4ccccc34)ccc2F)nn1 | 1.31 | 
C#CCNC(=O)c1ccc(Cc2n[nH]c(=O)c3ccccc23)cc1 | 1.17 | 
O=C(NCc1cn(-c2ccccc2)nn1)c1ccc(Cc2n[nH]c(=O)c3ccccc23)cc1 | 1.48 | 
O=C(NCc1cn(-c2ccc(Cl)cc2)nn1)c1ccc(Cc2n[nH]c(=O)c3ccccc23)cc1 | 1.09 | 
O=C(NCc1cn(-c2ccc(Cl)cc2)nn1)c1cc(Cc2n[nH]c(=O)c3ccccc23)ccc1F | 1.53 | 
CC(C)c1ccc(-n2cc(COC(=O)c3cc(Cc4n[nH]c(=O)c5ccccc45)ccc3F)nn2)cc1 | 1.52 | 
O=C(NCc1cn(-c2ccc(F)cc2F)nn1)c1cc(Cc2n[nH]c(=O)c3ccccc23)ccc1F | 1.75 | 
Cc1ccc(-n2cc(COC(=O)c3cc(Cc4n[nH]c(=O)c5ccccc45)ccc3F)nn2)cc1 | 0.98 | 
O=C(OCc1cn(-c2ccc(F)cc2)nn1)c1ccc(Cc2n[nH]c(=O)c3ccccc23)cc1 | 0.99 | 
CN(C)C(=N)NC(=N)N [METFORMIN] |  | fold change (FC) [6]: 1.65; Activity (Rattus norvegicus [7]): 64.7%

Structure (SMILES) | fold change (FC) [1] | also measured
O=C(NCc1cn(-c2ccc(OC(F)(F)F)cc2)nn1)c1cc(Cc2n[nH]c(=O)c3ccccc23)ccc1F | 1.59 | 
O=C(NCc1cn(-c2ccccc2)nn1)c1ccc(Cc2n[nH]c(=O)c3ccccc23)cc1F | 1.36 | 
COc1cccc(Cl)c1-n1cc(CNC(=O)c2cc(Cc3n[nH]c(=O)c4ccccc34)ccc2F)nn1 | 1.14 | 
O=C(NCc1cn(-c2ccc(Br)cc2)nn1)c1ccc(Cc2n[nH]c(=O)c3ccccc23)cc1 | 0.89 | 
O=C(NCc1cn(-c2ccc(Br)cc2)nn1)c1cc(Cc2n[nH]c(=O)c3ccccc23)ccc1F | 1.87 | 
O=C(NCc1cn(-c2ccc(C(F)(F)F)cc2)nn1)c1cc(Cc2n[nH]c(=O)c3ccccc23)ccc1F | 1.77 | 
O=C(OCc1cn(-c2ccccc2)nn1)c1ccc(Cc2n[nH]c(=O)c3ccccc23)cc1 | 0.94 | 
COc1ccccc1-n1cc(CNC(=O)c2cc(Cc3n[nH]c(=O)c4ccccc34)ccc2F)nn1 | 1.01 | 
Cc1ccc(-n2cc(COC(=O)c3ccc(Cc4n[nH]c(=O)c5ccccc45)cc3)nn2)cc1 | 0.9 | 
O=C(OCc1cn(-c2ccccc2)nn1)c1cc(Cc2n[nH]c(=O)c3ccccc23)ccc1F |  | fold change (FC) [6]: 0.97
O=C(NCc1cn(-c2ccccc2)nn1)c1cc(Cc2n[nH]c(=O)c3ccccc23)ccc1F | 1.93 | remaining at 2 h [8]: ≤ 60%; remaining at 2 h [9]: ≤ 60%; remaining at 2 h [10]: ≤ 60%; remaining at 2 h [11]: ≤ 60%; Activity [2]: Dose-dependent-effect; Activity [12]: Active; Activity [13]: inactive; Activity [14]: Active; Activity [15]: inactive; Activity [16]: Active; Activity (L6-GLUT4myc [17]): No effect; Activity (L6-GLUT4myc [18]): No effect; Activity [19]: Active; Activity (Rattus norvegicus [20]): Time-dependent-effect; Activity (Rattus norvegicus [21]): ~38.7%
O=C(NCc1cn(-c2cccc3ccccc23)nn1)c1cc(Cc2n[nH]c(=O)c3ccccc23)ccc1F | 1.15 | 
CC(C)c1ccc(-n2cc(CNC(=O)c3cc(Cc4n[nH]c(=O)c5ccccc45)ccc3F)nn2)cc1 | 1.1 | 
COc1ccc(OC)c(-n2cc(CNC(=O)c3cc(Cc4n[nH]c(=O)c5ccccc45)ccc3F)nn2)c1 | 1.29 | 
O=C(NCc1cn(-c2ccccc2F)nn1)c1cc(Cc2n[nH]c(=O)c3ccccc23)ccc1F | 0.86 | 
COc1ccc(-n2cc(COC(=O)c3cc(Cc4n[nH]c(=O)c5ccccc45)ccc3F)nn2)cc1 | 1.31 | 
COc1ccc(-n2cc(CNC(=O)c3cc(Cc4n[nH]c(=O)c5ccccc45)ccc3F)nn2)cc1 | 1.92 | Activity [2]: Dose-dependent-effect
O=C(OCc1cn(-c2ccc(Br)cc2)nn1)c1ccc(Cc2n[nH]c(=O)c3ccccc23)cc1 | 1.54 | 
O=C(NCc1cn(-c2cccc(F)c2)nn1)c1cc(Cc2n[nH]c(=O)c3ccccc23)ccc1F | 0.84 | 
Cc1ccc(-n2cc(CNC(=O)c3ccc(Cc4n[nH]c(=O)c5ccccc45)cc3)nn2)cc1 | 0.77 | 
O=C(OCc1cn(-c2ccc(F)cc2)nn1)c1cc(Cc2n[nH]c(=O)c3ccccc23)ccc1F | 1.03 | 
